Read-outs that look alike come from different tables or passages of the source.
How the values were obtained:
Assay in all cases: Ambit kinase profiling, competition binding
[1] = target: T1, RPS6KA1(Kin.Dom.2-C-terminal) (Homo sapiens, UniProt Q15418)
T1 construct: RPS6KA1(Kin.Dom.2-C-terminal); purchased Ambit Biosciences (KINOMEscan)
Experimental: (§1) Also included in the kinase profile are four isoforms of PKC (δ, ε, η, θ) and eight isoforms of CAMKs (CAMKIα, δ, γ; CAMKIIα, β, δ, γ; CAMK4).
(§2) The global kinase profiling experiment was performed by Ambit Biosciences.

[2] = target: T2, CAMK4 (Homo sapiens, UniProt Q16566); conditions: for competition: 10 µM
T2 construct: purchased Ambit Biosciences (KINOMEscan)
T2 sequence (Q16566 1-473): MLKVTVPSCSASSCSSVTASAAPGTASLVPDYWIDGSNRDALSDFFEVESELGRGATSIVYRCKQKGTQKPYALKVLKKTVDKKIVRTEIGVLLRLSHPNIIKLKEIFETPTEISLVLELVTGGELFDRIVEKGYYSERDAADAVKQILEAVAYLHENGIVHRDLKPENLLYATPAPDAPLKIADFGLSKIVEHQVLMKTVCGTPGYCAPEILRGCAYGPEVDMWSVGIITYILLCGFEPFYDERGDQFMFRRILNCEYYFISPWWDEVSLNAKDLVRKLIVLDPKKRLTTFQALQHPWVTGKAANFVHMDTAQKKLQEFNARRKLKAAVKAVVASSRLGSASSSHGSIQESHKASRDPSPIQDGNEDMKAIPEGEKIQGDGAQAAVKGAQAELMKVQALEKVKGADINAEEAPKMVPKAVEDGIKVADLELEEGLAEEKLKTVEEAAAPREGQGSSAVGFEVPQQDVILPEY
Experimental: as §1, §2

[3] = target: T3, ACVR1 (Homo sapiens, UniProt Q04771)
T3 construct: purchased Ambit Biosciences (KINOMEscan)
T3 sequence (Q04771 21-509): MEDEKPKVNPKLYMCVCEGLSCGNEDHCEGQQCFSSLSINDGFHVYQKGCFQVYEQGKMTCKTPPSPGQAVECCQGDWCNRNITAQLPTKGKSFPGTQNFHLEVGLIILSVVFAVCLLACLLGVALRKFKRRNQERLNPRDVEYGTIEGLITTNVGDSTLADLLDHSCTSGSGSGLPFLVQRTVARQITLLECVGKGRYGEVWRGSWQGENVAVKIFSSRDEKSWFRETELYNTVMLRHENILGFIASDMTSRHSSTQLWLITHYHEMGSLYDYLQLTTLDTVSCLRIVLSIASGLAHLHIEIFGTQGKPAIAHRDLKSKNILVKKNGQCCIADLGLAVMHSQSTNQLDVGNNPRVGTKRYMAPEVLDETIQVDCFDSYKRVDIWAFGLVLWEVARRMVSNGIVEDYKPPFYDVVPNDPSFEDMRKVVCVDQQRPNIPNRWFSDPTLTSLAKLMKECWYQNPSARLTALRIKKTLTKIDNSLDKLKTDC
Experimental: as §1, §2

[4] = target: T4, GAK (Homo sapiens, UniProt O14976)
T4 construct: purchased Ambit Biosciences (KINOMEscan)
T4 sequence (O14976 1-1311): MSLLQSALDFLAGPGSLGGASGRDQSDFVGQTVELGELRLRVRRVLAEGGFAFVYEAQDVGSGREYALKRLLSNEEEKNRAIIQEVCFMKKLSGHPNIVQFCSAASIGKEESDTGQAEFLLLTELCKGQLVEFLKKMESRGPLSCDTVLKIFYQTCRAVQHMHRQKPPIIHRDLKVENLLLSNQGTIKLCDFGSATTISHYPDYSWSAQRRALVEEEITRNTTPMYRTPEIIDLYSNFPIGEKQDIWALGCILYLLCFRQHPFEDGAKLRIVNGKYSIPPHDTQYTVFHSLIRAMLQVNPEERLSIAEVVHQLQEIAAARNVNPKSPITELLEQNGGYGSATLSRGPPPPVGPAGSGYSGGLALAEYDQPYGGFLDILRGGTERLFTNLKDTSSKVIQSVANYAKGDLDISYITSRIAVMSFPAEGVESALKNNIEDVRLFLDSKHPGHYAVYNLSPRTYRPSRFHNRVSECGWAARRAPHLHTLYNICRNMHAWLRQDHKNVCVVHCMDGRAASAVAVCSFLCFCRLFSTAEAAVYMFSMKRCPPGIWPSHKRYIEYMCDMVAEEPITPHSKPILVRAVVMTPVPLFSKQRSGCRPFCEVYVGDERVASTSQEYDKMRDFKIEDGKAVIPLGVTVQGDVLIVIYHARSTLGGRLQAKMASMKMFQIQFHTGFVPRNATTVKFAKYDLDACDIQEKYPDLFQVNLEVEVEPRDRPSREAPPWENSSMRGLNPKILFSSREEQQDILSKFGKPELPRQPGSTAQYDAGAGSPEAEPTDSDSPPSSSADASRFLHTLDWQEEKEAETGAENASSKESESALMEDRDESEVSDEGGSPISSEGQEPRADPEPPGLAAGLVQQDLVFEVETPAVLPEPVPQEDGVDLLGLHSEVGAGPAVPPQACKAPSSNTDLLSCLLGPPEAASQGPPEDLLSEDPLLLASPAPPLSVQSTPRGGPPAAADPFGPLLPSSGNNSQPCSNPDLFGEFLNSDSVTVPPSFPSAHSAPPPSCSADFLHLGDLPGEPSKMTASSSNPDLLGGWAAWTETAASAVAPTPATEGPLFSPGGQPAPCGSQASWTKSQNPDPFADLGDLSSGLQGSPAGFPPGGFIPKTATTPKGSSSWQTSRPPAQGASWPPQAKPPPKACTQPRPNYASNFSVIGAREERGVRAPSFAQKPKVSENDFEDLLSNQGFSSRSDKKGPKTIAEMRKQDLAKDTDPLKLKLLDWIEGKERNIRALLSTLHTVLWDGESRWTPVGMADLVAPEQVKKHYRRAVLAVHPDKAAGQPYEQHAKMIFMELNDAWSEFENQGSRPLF
Experimental: as §1, §2

[5] = target: T5, CIT (Homo sapiens, UniProt O14578); conditions: for % Competition: 10 µM
T5 construct: purchased Ambit Biosciences (KINOMEscan)
T5 sequence (O14578 whole entry): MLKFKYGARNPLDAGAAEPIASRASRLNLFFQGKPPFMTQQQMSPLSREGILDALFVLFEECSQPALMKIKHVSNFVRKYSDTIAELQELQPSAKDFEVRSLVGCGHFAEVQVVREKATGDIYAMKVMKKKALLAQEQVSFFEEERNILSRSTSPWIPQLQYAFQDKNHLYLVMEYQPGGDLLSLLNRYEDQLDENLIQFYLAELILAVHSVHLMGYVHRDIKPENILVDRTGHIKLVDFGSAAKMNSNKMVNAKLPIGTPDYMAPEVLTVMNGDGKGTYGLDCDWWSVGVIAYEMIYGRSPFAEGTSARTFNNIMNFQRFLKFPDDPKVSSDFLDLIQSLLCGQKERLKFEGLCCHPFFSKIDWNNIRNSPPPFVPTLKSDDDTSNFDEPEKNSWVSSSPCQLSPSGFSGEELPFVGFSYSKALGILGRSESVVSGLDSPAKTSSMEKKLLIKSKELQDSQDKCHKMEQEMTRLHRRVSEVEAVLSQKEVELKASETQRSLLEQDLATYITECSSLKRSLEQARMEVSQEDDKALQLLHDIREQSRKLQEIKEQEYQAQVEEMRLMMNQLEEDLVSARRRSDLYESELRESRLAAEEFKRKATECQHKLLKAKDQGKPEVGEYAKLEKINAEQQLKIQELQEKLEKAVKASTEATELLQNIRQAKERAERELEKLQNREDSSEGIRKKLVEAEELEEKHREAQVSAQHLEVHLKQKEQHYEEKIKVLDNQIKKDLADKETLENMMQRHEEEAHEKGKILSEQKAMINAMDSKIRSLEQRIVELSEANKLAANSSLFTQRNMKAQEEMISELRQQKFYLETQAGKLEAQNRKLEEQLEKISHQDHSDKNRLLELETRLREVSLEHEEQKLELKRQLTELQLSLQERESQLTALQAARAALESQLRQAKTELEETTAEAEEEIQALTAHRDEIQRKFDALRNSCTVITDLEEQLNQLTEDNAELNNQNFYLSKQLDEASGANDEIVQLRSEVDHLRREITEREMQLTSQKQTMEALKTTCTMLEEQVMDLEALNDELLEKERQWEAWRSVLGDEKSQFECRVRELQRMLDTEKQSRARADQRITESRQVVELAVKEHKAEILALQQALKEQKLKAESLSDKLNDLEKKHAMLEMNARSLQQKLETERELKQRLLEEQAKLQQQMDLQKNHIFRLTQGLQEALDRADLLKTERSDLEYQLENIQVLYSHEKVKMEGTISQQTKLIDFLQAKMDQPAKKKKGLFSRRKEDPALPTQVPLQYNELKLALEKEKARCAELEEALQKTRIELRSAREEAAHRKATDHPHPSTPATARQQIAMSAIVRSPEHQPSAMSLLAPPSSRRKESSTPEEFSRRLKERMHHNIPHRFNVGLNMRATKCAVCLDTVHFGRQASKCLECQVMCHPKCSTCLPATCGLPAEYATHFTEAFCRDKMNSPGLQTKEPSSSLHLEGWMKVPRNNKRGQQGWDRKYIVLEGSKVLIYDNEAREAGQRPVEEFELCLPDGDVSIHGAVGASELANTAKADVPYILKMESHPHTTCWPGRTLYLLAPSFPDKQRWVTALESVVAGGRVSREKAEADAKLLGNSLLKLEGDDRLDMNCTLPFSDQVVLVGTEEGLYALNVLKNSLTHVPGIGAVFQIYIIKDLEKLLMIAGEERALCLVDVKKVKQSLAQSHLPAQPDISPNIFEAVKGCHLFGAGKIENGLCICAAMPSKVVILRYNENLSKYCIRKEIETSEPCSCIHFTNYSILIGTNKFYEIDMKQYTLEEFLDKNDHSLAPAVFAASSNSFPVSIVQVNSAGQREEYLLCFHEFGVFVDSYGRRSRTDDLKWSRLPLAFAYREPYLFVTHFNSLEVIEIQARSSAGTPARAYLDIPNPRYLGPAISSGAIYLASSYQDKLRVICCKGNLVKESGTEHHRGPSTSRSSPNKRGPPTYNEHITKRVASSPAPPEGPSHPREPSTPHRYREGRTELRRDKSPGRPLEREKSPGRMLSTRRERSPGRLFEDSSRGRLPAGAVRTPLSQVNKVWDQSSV
Experimental: as §1, §2

[6] = target: T6, EGFR(E746-A750del) (Homo sapiens, UniProt P00533, DEL746-750); conditions: for % Competition: 10 µM
T6 construct: purchased Ambit Biosciences (KINOMEscan)
Experimental: as §1, §2

[7] = target: T7, CSNK1E (Homo sapiens, UniProt P49674)
T7 construct: purchased Ambit Biosciences (KINOMEscan)
T7 sequence (P49674 whole entry): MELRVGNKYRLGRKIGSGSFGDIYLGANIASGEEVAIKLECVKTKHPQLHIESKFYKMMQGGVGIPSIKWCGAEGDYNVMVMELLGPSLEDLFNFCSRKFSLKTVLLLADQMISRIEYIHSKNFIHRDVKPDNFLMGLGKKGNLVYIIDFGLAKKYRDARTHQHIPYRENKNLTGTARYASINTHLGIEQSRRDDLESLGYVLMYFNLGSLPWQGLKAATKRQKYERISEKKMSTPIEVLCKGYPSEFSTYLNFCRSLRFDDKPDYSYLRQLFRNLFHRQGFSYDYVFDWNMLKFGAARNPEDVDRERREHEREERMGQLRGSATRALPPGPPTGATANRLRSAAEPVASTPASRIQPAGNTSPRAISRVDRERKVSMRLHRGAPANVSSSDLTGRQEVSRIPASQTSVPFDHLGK
Experimental: as §1, §2

T1 sequence (Q15418 392-735 limits assumed): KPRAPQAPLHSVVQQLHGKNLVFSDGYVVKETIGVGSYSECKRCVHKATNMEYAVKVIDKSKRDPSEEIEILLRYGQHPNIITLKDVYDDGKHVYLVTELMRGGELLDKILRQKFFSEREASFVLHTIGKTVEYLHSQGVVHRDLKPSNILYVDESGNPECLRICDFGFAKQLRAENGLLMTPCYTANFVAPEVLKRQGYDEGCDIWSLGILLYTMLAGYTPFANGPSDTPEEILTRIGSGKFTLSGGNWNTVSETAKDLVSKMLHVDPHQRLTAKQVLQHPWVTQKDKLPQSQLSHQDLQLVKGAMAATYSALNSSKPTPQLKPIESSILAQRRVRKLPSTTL

Row | inhibition at 10 µM ([1]; RPS6KA1(Kin.Dom.2-C-terminal), 10 µM, read-out: % Competition) | inhibition at 10 µM ([3]; ACVR1, 10 µM, read-out: % Competition) | inhibition at 10 µM ([4]; GAK, 10 µM, read-out: % Competition) | inhibition at 10 µM ([7]; CSNK1E, 10 µM, read-out: % Competition) | inhibition at 10 µM ([1]; RPS6KA1(Kin.Dom.2-C-terminal), compound concentration 10 uM, read-out: Percent Competition) | inhibition at 10 µM ([2]; compound concentration 10 uM, read-out: Percent Competition) | inhibition at 10 µM ([3]; ACVR1, compound concentration 10 uM, read-out: Percent Competition) | inhibition at 10 µM ([4]; GAK, compound concentration 10 uM, read-out: Percent Competition) | Percent Competition ([5]; compound concentration 10 uM) | Percent Competition ([6]; compound concentration 10 uM) | inhibition at 10 µM ([7]; CSNK1E, compound concentration 10 uM, read-out: Percent Competition) | SMILES | competition [2] | % Competition [5] | % Competition [6] | inhibition at 10 µM ([1]; read-out: % Competition) | inhibition at 10 µM ([3]; read-out: % Competition) | inhibition at 10 µM ([4]; read-out: % Competition) | inhibition at 10 µM ([7]; read-out: % Competition, CSNK1E, 10 µM)
1 | 92% | 92% | 98% | 100% | – | – | – | – | – | – | – | Fc1ccc(-c2c(-c3ccncc3)[nH]c3nccnc23)cc1 [Compound 122] | < 50% | 99% | 96% | – | – | – | –
2 | – | – | – | – | – | – | – | – | – | – | – | CC(O)CNc1cc(-c2[nH]c3cccnc3c2-c2ccc(F)cc2)ccn1 (stereo not drawn) [Compound 140] | < 50% | 99% | 90% | 87% | < 50% | 98% | 99 to 100%
3 | – | – | – | – | 92% | < 50% | 92% | 98% | 99% | 96% | 100% | Fc1ccc(-c2c(-c3ccncc3)[nH]c3nccnc23)cc1 [RO1155697-000-005] | – | – | – | – | – | – | –

Source: paper PMC3445516 (PLoS ONE, 2012)
